Measured values published in patent US9095567B2, “Vaccine formulations” (priority 2010, dated 2015).

Assays:
Assay type in all cases: cell-based
[1] = system: Candida albicans (ATCC#10231); assay: Preservative effectiveness test, single challenge
Text: (§1) To test for preservative effectiveness, aliquots of vaccine were inoculated with the following organisms:
(§2) Thirty milliliters (ml) of each vaccine formulation with and without Thimerosal or 2-PE at indicated concentrations or saline containing Thimerosal at 0.02% were inoculated in triplicates with a suspension of each test organism to achieve an inoculum density of approximately 10^5 to 10^6 CFU/ml at time 0 (CFU=colony forming units). […] Samples were mixed to ensure even distribution of challenged organisms. Another 30 ml of vaccine in triplicate (with and without preservative) were used as a negative control and spiked with the culture media alone to evaluate the inherent contamination that might be present in the sample or media. Each of the three series of vaccines, and positive and negative controls, was then separately incubated at 20 to 25° C. Aliquots (1 ml) of the challenged samples and controls (or their appropriate serial ten fold dilutions) were enumerated by plate count in duplicates at time 0 and at intervals of 6 hours, 24 hours, 7 days, 14 days and 28 days post-inoculation.
(§3) USP 29 NF 24 Supplement 2 (USP) requires that, after an inoculation of bacterial micro-organism(s), there is at least 1.0 log reduction from the initial calculated count (i.e., at time of inoculation) at 7 days, at least 3.0 log reduction at 14 days from the previous value measured and no increase at 28 days from the previous measured value. For yeast and fungi, the USP requirement is for there to be no increase from the time of inoculation to 7, 14 and 28 days.
(§4) EP requirements are more stringent. EP 5th Edition 5.6 (5.1.3) requirements for parenteral and ophthalmic preparations has two components: Category A and Category B. Category A (EP-A) requires, for bacteria, at least 2.0 log reduction from the initial calculated count at 6 hours after inoculation, at least 3.0 log reduction at 24 hours from the previous measured value, and no recovery at 28 days. Category B (EP-B) requires, for bacteria, at least 1.0 log reduction at 24 hours from the initial calculated count, at least 3.0 log reduction at 7 days from the previous value measured and not more than 0.5 log increase at 28 days from the previous value measured (i.e., no increase). For yeast and fungi, Category A requires at least 2.0 log reduction at 7 days and no increase from the previous value measured at 28 days, and Category B requires at least 1.0 log reduction at 14 days and no increase from the previous value measured at 28 days.
(§5) Plates containing <300 CFU for bacteria or <100 CFU for yeast or mold were used during enumeration. For single challenge studies, arithmetic average count of all surviving micro-organisms in triplicate and on duplicate plates (6 values per time point) plus their diluted samples were measured and normalized as CFU/ml. The results are expressed as mean log10 CFU/ml reduction (compared to time 0). In this case, the count of surviving micro-organisms is evaluated at time 0 as the baseline and compared to incubation time of 6 hours, 24 hours, 7 days, 14 days and 28 days.

[2] = system: Staphylococcus aureus (ATCC #6538); assay: Preservative effectiveness test, single challenge
Text: as §1, §2, §3, §4, §5

[3] = system: P. aeruginosa, S. aureus, E. coli and B. subtilis; assay: Preservative effectiveness test, multi-challenge method, all challenge organisms
Description: (§6) To represent the worst reasonable case of contamination that may occur in practice during the repeated use of a multi-dose presentation, WHO requires safety testing with deliberate exposure to multiple contamination events using bacterial strains, Pseudomonas Aeruginosa (“PA”), Staphylococcus Aureus (“SA”), Escherichia coli (“EC”) and Bacillus subtilis (“BA”). Formulations are spiked with 5×10^3 CFU/ml of each organism at times 0, 6 hours, 24 hours, 7 days and 14 days after initial challenge and stored either at 2-8° C. or at 22-24° C. to mimic the potential storage conditions in practice.
(§7) To assess the appropriateness of WHO multi-dose Open Vial Policy of vaccines in multiple immunization sessions for up to maximum of four weeks, experimental design provided by WHO was implemented. In this study, the effectiveness of Thimerosal was evaluated at the concentration that is present in the majority of U.S. licensed vaccines (0.01%), as well as at a higher concentration of 0.02%. To represent the worst reasonable case of contamination that may occur in practice during the repeated use of a multi-dose presentation, and to test WHO requirements, Prev(e)nar 13 vaccine formulations with 0.01 or 0.02% Thimerosal or with 5.0 mg/dose of 2-PE were deliberately exposed to multiple contamination events using WHO recommended bacterial strains, P. aeruginosa, S. aureus, E. coli and B. subtilis. Formulations were spiked with 5×10^3 CFU/ml of each organism at times 0, 6 hours, 24 hours, 7 days and 14 days after initial challenge and stored either at 2-8° C. or at 22-24° C. to mimic the potential storage conditions in practice. Saline formulation containing 0.02% Thimerosal was also used as a control to evaluate the potential impact of Prev(e)nar 13 on the antimicrobial efficacy of Thimerosal in the formulation.

[4] = system: S. aureus; assay: Multi-challenge method, S. aureus decay (non-linear regression analysis)
Description: as §6, §7
As shown in the non-linear regression analysis of decay in the viability of S. aureus is summarized in FIG. 12, the rate of decay of S. aureus was substantially slower ([…], with 50% decay in 30.28 days) when formulation was stored at 2-8° C. compared to that stored at 22-24° C. (−1.39 log10 decay per day, with 50% decay in 6.2 days) (FIG. 12).

[5] = Prev(e)nar 13 formulation, single challenge, 20 to 25° C.
[6] = 0.01% Thimerosal in Prev(e)nar 13, single challenge
[7] = 0.02% Thimerosal in saline (no Prev(e)nar 13) versus vaccine formulation, single challenge
[8] = 0.02% Thimerosal in Prev(e)nar 13, 22-24° C. storage
[9] = 0.02% Thimerosal in saline control formulation without vaccine
[10] = 0.01% Thimerosal in Prev(e)nar 13, stored at 2-8° C.
[11] = 0.01% Thimerosal in Prev(e)nar 13, stored at 22-24° C.

OCCOc1ccccc1 [2-PE, 2-phenoxyethanol]
EP (EP-B) vaccine safety requirements, C. albicans [1, 5]: Fails
USP vaccine safety requirements, C. albicans [1, 5]: Meets
time to reduction of S. aureus to baseline after inoculation ([2]; 5.0 mg/dose 2-PE in Prev(e)nar 13, single challenge): 24 h
EP (EP-B) vaccine safety requirements, S aureus [2, 5]: Fails
USP vaccine safety requirements, S aureus [2, 5]: Meets
EP-B criteria under multiple challenge ([3]; 5 mg/dose 2-PE in Prev(e)nar 13): met
preservative effectiveness compared with 0.01% Thimerosal ([3]; 5 mg/dose 2-PE, multi-challenge method, regardless of storage temperature, all organisms tested): superior
rate of antimicrobial effectiveness compared to Thimerosal ([3]; 2-PE at 3.5 to 5 mg/dose): much higher
inactivation of S. aureus viability compared with Thimerosal ([4]; 5 mg/dose of 2-PE in Prev(e)nar 13, single or multiple challenge, either storage temperature): stronger
rate of S. aureus decay (50% decay and average slope) compared with Thimerosal ([4]; vaccine formulations with 2-PE, non-linear regression analysis): faster

C[CH2][Hg][S]c1ccccc1C(=O)[O-].[Na+] [Thimerosal]
inhibition of C. albicans relative to P. aeruginosa and A. niger [1, 6]: weaker
growth inhibitory effectiveness against C. albicans [1, 7]: slightly improved
reduction of contamination levels, C. albicans ([1]; 0.02% Thimerosal versus 0.01% in Prev(e)nar 13, single challenge): more pronounced
inhibition of S. aureus relative to P. aeruginosa and A. niger [2, 6]: weaker
growth inhibitory effectiveness against S. aureus [2, 7]: slightly improved
decline of S. aureus ([2]; Thimerosal in Prev(e)nar 13, single challenge): slow decline
antibacterial effectiveness by organism ([3]; 0.01% Thimerosal in Prev(e)nar 13, multiple challenges): highest on B. subtilis followed by P. aeruginosa
EP requirements EP-A applied to multi-challenge studies [3, 8]: did not meet
EP requirements EP-B applied to multi-challenge studies [3, 8]: did not meet
acceptance criteria of EP-A when multiply challenged [3, 9]: did not meet
acceptance criteria of EP-B when multiply challenged [3, 9]: did not meet
preservative effectiveness, concentration dependence ([3]; Thimerosal 0.02% versus 0.01%, multiple challenges): more effective
rate of inactivation ([3]; Thimerosal in Prev(e)nar 13, particularly against S. aureus and E. coli): slow
EP-B criteria under multiple challenge ([3]; Thimerosal, any version tested): no version of Thimerosal was able to do so
preservative effectiveness, temperature dependence ([3]; Thimerosal, storage at 22-24° C. versus 2-8° C., multiple challenges): more effective
reduction of S. aureus ([4]; 0.01% Thimerosal in Prev(e)nar 13, multiple challenges, particularly at 2-8° C.): slow
rate of decay of S. aureus [4, 10]: −5.98 log10 decay per day
time to 50% decay of S. aureus [4, 10]: 30.28 days
rate of decay of S. aureus [4, 11]: −1.39 log10 decay per day
time to 50% decay of S. aureus [4, 11]: 6.2 days
rate of decay of S. aureus in saline formulation versus vaccine formulation ([4]; 0.02% Thimerosal, multiple challenges): more pronounced
